Values of other authors in patent US9458123B2, “Methods, pharmaceutical compositions, therapeutic systems, and compounds for treating B cell malignancies” (University of Rochester, priority 2012, dated 2016).

Target: Ubc13 and Uev1A (Homo sapiens, UniProt P61088+Q13404)
Conditions: previous studies; cited from earlier work

Chain of Ubc13 and Uev1A (P61088 whole entry, species assumed): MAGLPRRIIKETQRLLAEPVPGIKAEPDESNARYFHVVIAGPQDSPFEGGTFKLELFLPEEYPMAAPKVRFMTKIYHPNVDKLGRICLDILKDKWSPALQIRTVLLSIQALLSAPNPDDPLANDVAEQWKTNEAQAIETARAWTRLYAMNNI
Chain of Ubc13 and Uev1A (Q13404 whole entry, species assumed): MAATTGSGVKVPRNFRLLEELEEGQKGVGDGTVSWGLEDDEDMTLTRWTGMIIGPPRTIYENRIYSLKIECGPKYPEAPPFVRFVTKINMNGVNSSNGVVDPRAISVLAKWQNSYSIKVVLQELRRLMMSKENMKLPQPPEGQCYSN

SMILES: C[C@@H](N)[C@@H](O)C/C=C\C/C=C\C/C=C\C/C=C\C/C=C\C/C=C\CCCCCC[C@H](O)[C@@H](C)N [leucettamol A]
- complex formation between Ubc13 and Uev1A in vitro: inhibited
